Source: US10195282B2, “Use of alginate formulation for intraincisional drug delivery” (UNIVERSITY OF SOUTHERN CALIFORNIA, priority 2014, dated 2019)
Non-standard residues stand in square brackets, D forms with d. Residues, ends and D or L forms follow the SMILES beside them. Nle = CCCC[C@H](N)C(=O)O

System: full thickness incision wounds in a rat model
Test: Scar formation dose-response of NorLeu3-A(1-7) in 2.5% alginate crosslinked with 5 mM CaCl2 (Example 3)
Assay type: in vivo, Sprague Dawley rats
Conditions: 1 mg/ml in the formulation; compared with surgical and vehicle controls; day 21
Protocol: This example was designed to determine the formation and remodeling of scar by clinical and histological evaluations in full thickness incision wounds in a rat model. Various doses of active ingredient were delivered in 2.5% alginate crosslinked with 5 mM CaCl2. • Species: • Sprague Dawley • Female (n=5/group for histology; 3/group for tensile strength) • Parameters Measured: • Appearance of Healing Wound (Gross and Histological of Dense Collagen by Image J) • Tensile Strength • Central, Blinded Adjudication of Photos on Day 21 • Photographic serial imaging • Experimental Groups: Surgical control, vehicle (2.5% alginate crosslinked with 5 mM CaCl2) and 2.5% alginate crosslinked with 5 mM CaCl2 with 0.3, 1, 3 or 5 mg/ml DSC127) Methods
Alginate was supplied by FMC BioPolymer. […]
During the experimental period, Sprague Dawley rats, 200-225 grams, were housed one per cage and maintained in a central animal care facility with a 12-hour light/dark cycle. […] The six tests groups that were evaluated are: surgical control, vehicle control and 30, 100, 300 or 500 μg/wound of NorLeu3-A(1-7) in the vehicle. […] The animals were monitored for breathing, urination and movement during the postoperative interval. […] During the first two weeks after surgery, scabbing, dehiscence and inflammation were assessed. […]
Scabbing was assessed on a 4-point scale (0,1,2,3) for none, mild, moderate and severe, respectively. […]

- Inflammation at the site of the incision scored on histological sections: trend towards reduced inflammation
SMILES: CCCC[C@H](NC(=O)[C@H](CCCNC(=N)N)NC(=O)[C@@H](N)CC(=O)O)C(=O)N[C@@H](Cc1ccc(O)cc1)C(=O)N[C@H](C(=O)N[C@@H](Cc1c[nH]cn1)C(=O)N1CCC[C@H]1C(=O)O)[C@@H](C)CC [NorLeu3-A(1-7), Asp-Arg-Nle-Tyr-Ile-His-Pro] (H-DR[Nle]YIHP-OH; N-terminus and C-terminus assumed)
